Reference: patent publication US4731383A, “Aminoguanidine compounds, their compositions and pharmaceutical uses” (Biogal Gyogyszergyar, priority 1983, dated 1988)
Counter-ions that a name gives are not always drawn. Like-named read-outs stand apart in the source and are kept apart here.

Experiments:
[1] = system: mice treated with aconitin; experiment: animal or person; assay type: in vivo; conditions: Mus musculus, read-out: Delay in the appearance time of arrhythmia
Procedure: Arrhytmia was induced in male mice, weighing 20 to 25 g, by treating them continuously, at a rate of 0.2 ml/min with an infusion containing 5 μg/kg of aconitin. The test compound was administered to the animals either intraperitoneally (by injecting it into the abdominal cavity) 15 minutes before the start of the infusion, or orally 60 minutes before the onset of the infusion. The time of the appearance of arrhythmia was recorded, and the percentage of delay was calculated in relation to the data obtained in the controls, pretreated with 0.9 percent sodium chloride solution only [B. Vargaftig and J. L. Coignet: European J. of Pharmacol. 6, 49 to 55 (1969); N. K. Dadkar and B. K. Bhattachariya: Arch. Int. Pharmacodyn. 212, 297 to 301 (1974); D. U. Nwagwu, T. L. Holcslaw and S. J. Stohs: Arch. Int. Pharmacodyn. 229, 219 to 226 (1977)].

[2] = system: left auricle of isolated rabbit heart; experiment: Electrophysiological tests in the isolated rabbit heart, left auricle; conditions: for Change in conduction time / Change in electric stimulus threshold / Change in max. driving frequency: n = 4
Procedure: (§1) Hearts of rabbits of both sexes, weighing 1 to 2 kg, were removed, the right and left auricles and a segment of the right ventricle were prepared and placed into a vessel filled with nutrient solution. Bipolar platinum electrodes (a stimulating electrode and a lead electrode) were placed on the organ strips, and the electric stimulus threshold and the speed of impulse conduction were measured. The effective refractory period was determined on the basis of the maximal driving frequency.

[3] = system: right ventricle of isolated rabbit heart; experiment: Electrophysiological tests in the isolated rabbit heart, right ventricle; conditions: n = 4
Procedure: as §1

[4] = in vivo; conditions: mouse

SMILES: Cc1ccccc1NNC(=N)N(C)C [Example 1, 1-(2-Methylphenyl)-4,4-dimethyl-aminoguanidine hydrochloride]
- change in vivo at 25 mg/kg ([1]; ip): 164%
- change in vivo at 50 mg/kg ([1]; ip): 174%
- change in vivo at 50 mg/kg ([1]; po): 102%
- change in vivo at 100 mg/kg ([1]; po): 197%
- Change in conduction time ([2]; 0.25 mg/l): +0.54%
- Change in electric stimulus threshold ([2]; 0.25 mg/l): 0%
- Change in max. driving frequency ([2]; 0.25 mg/l): -0.08%
- Change in conduction time ([2]; 0.5 mg/l): +8.66%
- Change in electric stimulus threshold ([2]; 0.5 mg/l): -1.82%
- Change in max. driving frequency ([2]; 0.5 mg/l): -0.98%
- Change in conduction time ([2]; 1.0 mg/l): +12.55%
- Change in electric stimulus threshold ([2]; 1.0 mg/l): -11.8%
- Change in max. driving frequency ([2]; 1.0 mg/l): -9.21%
- Change in conduction time ([2]; 2.0 mg/l): +28.42%
- Change in electric stimulus threshold ([2]; 2.0 mg/l): +30.84%
- Change in max. driving frequency ([2]; 2.0 mg/l): -17.09%
- Change in conduction time ([2]; 4.0 mg/l): +47.87%
- Change in electric stimulus threshold ([2]; 4.0 mg/l): +43.4%
- Change in max. driving frequency ([2]; 4.0 mg/l): -28.82%
- Change in conduction time ([2]; 8.0 mg/l): +114.03%
- Change in electric stimulus threshold ([2]; 8.0 mg/l): +83.9%
- Change in max. driving frequency ([2]; 8.0 mg/l): -59.1%
- inhibition at 0.25 µg/mL ([2]; Oryctolagus cuniculus, 0.25 mg/l, n = 4, read-out: Contractility): 2.61%
- inhibition at 0.5 µg/mL ([2]; Oryctolagus cuniculus, 0.5 mg/l, n = 4, read-out: Contractility): 7.57%
- inhibition at 1 µg/mL ([2]; Oryctolagus cuniculus, 1.0 mg/l, n = 4, read-out: Contractility): 15.5%
- inhibition at 2 µg/mL ([2]; Oryctolagus cuniculus, 2.0 mg/l, n = 4, read-out: Contractility): 18.1%
- inhibition at 4 µg/mL ([2]; Oryctolagus cuniculus, 4.0 mg/l, n = 4, read-out: Contractility): 27.1%
- inhibition at 8 µg/mL ([2]; Oryctolagus cuniculus, 8.0 mg/l, n = 4, read-out: Contractility): 37.9%
- Change in conduction time ([3]; 0.25 mg/l): +0.2%
- Change in electric stimulus threshold ([3]; 0.25 mg/l): 0%
- Change in max. driving frequency ([3]; 0.25 mg/l): -0.88%
- Change in conduction time ([3]; 0.5 mg/l): +3.31%
- Change in electric stimulus threshold ([3]; 0.5 mg/l): -1.43%
- Change in max. driving frequency ([3]; 0.5 mg/l): -0.38%
- Change in conduction time ([3]; 1.0 mg/l): +14.84%
- Change in electric stimulus threshold ([3]; 1.0 mg/l): +5.42%
- Change in max. driving frequency ([3]; 1.0 mg/l): -1.82%
- Change in conduction time ([3]; 2.0 mg/l): +36.75%
- Change in electric stimulus threshold ([3]; 2.0 mg/l): +20.6%
- Change in max. driving frequency ([3]; 2.0 mg/l): -10.33%
- Change in conduction time ([3]; 4.0 mg/l): +52.45%
- Change in electric stimulus threshold ([3]; 4.0 mg/l): +23.6%
- Change in max. driving frequency ([3]; 4.0 mg/l): -17.43%
- Change in conduction time ([3]; 8.0 mg/l): +77.82%
- Change in electric stimulus threshold ([3]; 8.0 mg/l): +35.8%
- Change in max. driving frequency ([3]; 8.0 mg/l): -36.8%
- LD50 ([4]; ip): 81 mg/kg
- LD50 ([4]; po): 203 mg/kg
